From ChEMBL document CHEMBL1130291, “Synthesis of trimethylated phosphonium and arsonium analogues of the osmoprotectant glycine betaine; contrasted biological activities in two bacterial species” (Bioorg Med Chem Lett, 1997)
The source made the active and inactive calls. The rule behind the calls is not given here.

Legend:
Type in all cases: functional, organism-based
Escherichia coli [1] = assay: Inhibitory activity against growth of Escherichia coli MC4100 in presence 0.8M NaCl; Strong inhibition
Escherichia coli [2] = assay: Inhibitory activity against growth of Escherichia coli MC4100 without NaCl; No effect
Sinorhizobium meliloti [3] = assay: Osmoprotective activity of compound in Rhizobium meliloti 102F34 by restoring its growth rate was evaluated; Highly osmoprotective
Sinorhizobium meliloti [4] = assay: Osmoprotective activity of compound in Rhizobium meliloti 102F34 by restoring its growth rate was evaluated; Highly toxic
Sinorhizobium meliloti [5] = assay: Inhibition of the growth of Rhizobium meliloti was observed at 1 mM by inoculation of 0.5 M NaCl; No growth was observed

Row | SMILES | Activity (Escherichia coli [1]) | Activity (Escherichia coli [2]) | Activity (Sinorhizobium meliloti [3]) | Activity (Sinorhizobium meliloti [4]) | Activity (Sinorhizobium meliloti [5])
1 | C[N+](C)(C)CC(=O)O | Highly osmoprotective | inactive | Highly osmoprotective | – | –
2 | C[As+](C)(C)CC(=O)[O-] | No growth | inactive | – | Toxic | No growth
3 | C[P+](C)(C)CC(=O)[O-] | No growth | inactive | – | Toxic | No growth
